What follows are compounds tested on KRas G12D-mediated phosphorylation of ERK (assay: Inhibition of KRas G12D-mediated phosphorylation of ERK in AGS cells). Settings: Homo sapiens; AGS cells expressing G12D, 3 hours, phospho-ERK normalized to GAPDH.
Type: cell-based
Procedure, shortened: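 Fixed, methanol-permeabilized; phospho-ERK (Thr202/Tyr204) by in-cell immunofluorescence normalized to GAPDH. Percent of DMSO control, IC50 by 4-parameter fit.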

| SMILES | IC50 |
| --- | --- |
| Oc1cc(-c2ncc3c(N4C[C@H]5CC[C@@H](C4)N5)nc(N4CC5(CCOC5)C4)nc3c2F)c2ccccc2c1 [Example 76, 4-(4-((1R,5S)-3,8-diazabicyclo[3.2.1]octan-3-yl)-8-fluoro-2-(6-oxa-2-azaspiro[3.4]octan-2-yl)pyrido[4,3-d]pyrimidin-7-yl)naphthalen-2-ol] | 7.41 µM |
| CC(=O)N1CCC(Oc2nc(N3C[C@H]4CC[C@@H](C3)N4)c3cnc(-c4cc(O)cc5ccccc45)c(F)c3n2)CC1 [Example 78, 1-(4-((4-((1R,5S)-3,8-diazabicyclo[3.2.1]octan-3-yl)-8-fluoro-7-(3-hydroxynaphthalen-1-yl)pyrido[4,3-d]pyrimidin-2-yl)oxy)piperidin-1-yl)ethan-1-one] | > 16.7 µM |
| Oc1cc(-c2ncc3c(N4C[C@H]5CC[C@@H](C4)N5)nc(OCCC(F)(F)F)nc3c2F)c2ccccc2c1 [Example 81, 4-(4-((1R,5S)-3,8-diazabicyclo[3.2.1]octan-3-yl)-8-fluoro-2-(3,3,3-trifluoropropoxy)pyrido[4,3-d]pyrimidin-7-yl)naphthalen-2-ol] | 8.29 µM |
| [O-][S+]1CCC(Oc2nc(N3C[C@H]4CC[C@@H](C3)N4)c3cnc(-c4cc(O)cc5ccccc45)c(F)c3n2)CC1 (stereo partly drawn) [Example 82, 4-((4-((1R,5S)-3,8-diazabicyclo[3.2.1]octan-3-yl)-8-fluoro-7-(3-hydroxynaphthalen-1-yl)pyrido[4,3-d]pyrimidin-2-yl)oxy)tetrahydro-2H-thiopyran 1-oxide] | > 16.7 µM |
| Cc1nccn1CCOc1nc(N2CC3CCC(C2)N3)c2cnc(-c3cc(O)cc4ccccc34)c(F)c2n1 [Example 84, 4-(4-((1R,5S)-3,8-diazabicyclo[3.2.1]octan-3-yl)-8-fluoro-2-(2-(2-methyl-1H-imidazol-1-yl)ethoxy)pyrido[4,3-d]pyrimidin-7-yl)naphthalen-2-ol] | 5.72 µM |
| CC(C)Cn1ccnc1CCOc1nc(N2C[C@H]3CC[C@@H](C2)N3)c2cnc(-c3cc(O)cc4ccccc34)c(F)c2n1 [Example 85, 4-(4-((1R,5S)-3,8-diazabicyclo[3.2.1]octan-3-yl)-8-fluoro-2-(2-(1-isobutyl-1H-imidazol-2-yl)ethoxy)pyrido[4,3-d]pyrimidin-7-yl)naphthalen-2-ol] | > 16.7 µM |
| Cc1cccc(CCOc2nc(N3C[C@H]4CC[C@@H](C3)N4)c3cnc(-c4cc(O)cc5ccccc45)c(F)c3n2)n1 [Example 87, 4-(4-((1R,5S)-3,8-diazabicyclo[3.2.1]octan-3-yl)-8-fluoro-2-(2-(6-methylpyridin-2-yl)ethoxy)pyrido[4,3-d]pyrimidin-7-yl)naphthalen-2-ol] | 10.6 µM |
| CC(C)n1ccnc1CCOc1nc(N2C[C@H]3CC[C@@H](C2)N3)c2cnc(-c3cc(O)cc4ccccc34)c(F)c2n1 [Example 91, 4-(4-((1R,5S)-3,8-diazabicyclo[3.2.1]octan-3-yl)-8-fluoro-2-(2-(1-isopropyl-1H-imidazol-2-yl)ethoxy)pyrido[4,3-d]pyrimidin-7-yl)naphthalen-2-ol] | 5.51 µM |
| Fc1c(-c2cccc3cccc(Cl)c23)ncc2c(N3C[C@H]4CC[C@@H](C3)N4)nc(OCC34CCCN3CC(F)(F)C4)nc12 (stereo partly drawn) [Example 93, 4-((1R,5S)-3,8-diazabicyclo[3.2.1]octan-3-yl)-7-(8-chloronaphthalen-1-yl)-2-((2,2-difluorotetrahydro-1H-pyrrolizin-7a(5H)-yl)methoxy)-8-fluoropyrido[4,3-d]pyrimidine bis(2,2,2-trifluoroacetate)] | > 16.7 µM |
| Fc1ccc2cccc(-c3ncc4c(N5C[C@H]6CC[C@@H](C5)N6)nc(OCC56CCCN5CCC6)nc4c3F)c2c1Cl [Example 98, 4-((1R,5S)-3,8-diazabicyclo[3.2.1]octan-3-yl)-7-(8-chloro-7-fluoronaphthalen-1-yl)-8-fluoro-2-((tetrahydro-1H-pyrrolizin-7a(5H)-yl)methoxy)pyrido[4,3-d]pyrimidine bis(2,2,2-trifluoroacetate)] | 0.389 µM |
| Oc1cc(-c2ncc3c(N4C[C@H]5CC[C@@H](C4)N5)nc(OCCc4ccc(F)cn4)nc3c2F)c2ccccc2c1 [Example 102, 4-(4-((1R,5S)-3,8-diazabicyclo[3.2.1]octan-3-yl)-8-fluoro-2-(2-(5-fluoropyridin-2-yl)ethoxy)pyrido[4,3-d]pyrimidin-7-yl)naphthalen-2-ol] | 7.96 µM |
| Fc1c(-c2cccc3cccc(Cl)c23)ncc2c(N3C[C@H]4CC[C@@H](C3)N4)nc(OCCCN3C[C@@H]4C[C@H]3CO4)nc12 [Example 103, (1S,4S)-5-(3-((4-((1R,5S)-3,8-diazabicyclo[3.2.1]octan-3-yl)-7-(8-chloronaphthalen-1-yl)-8-fluoropyrido[4,3-d]pyrimidin-2-yl)oxy)propyl)-2-oxa-5-azabicyclo[2.2.1]heptane] | > 16.7 µM |
| Cn1ccnc1COc1nc(N2C[C@H]3CC[C@@H](C2)N3)c2cnc(-c3cc(O)cc4ccccc34)c(F)c2n1 [Example 104, 4-(4-((1R,5S)-3,8-diazabicyclo[3.2.1]octan-3-yl)-8-fluoro-2-((1-methyl-1H-imidazol-2-yl)methoxy)pyrido[4,3-d]pyrimidin-7-yl)naphthalen-2-ol] | > 16.7 µM |
| Oc1cc(-c2ncc3c(N4C[C@H]5CC[C@@H](C4)N5)nc(OCCc4cccnc4)nc3c2F)c2ccccc2c1 [Example 106, 4-(4-((1R,5S)-3,8-diazabicyclo[3.2.1]octan-3-yl)-8-fluoro-2-(2-(pyridin-3-yl)ethoxy)pyrido[4,3-d]pyrimidin-7-yl)naphthalen-2-ol] | 3.1 µM |
| Oc1cc(-c2ncc3c(N4C[C@H]5CC[C@@H](C4)N5)nc(OCC45CCCN4CCC5)nc3c2F)c2ccccc2c1 [Example 109, 4-(4-((1R,5S)-3,8-diazabicyclo[3.2.1]octan-3-yl)-8-fluoro-2-((tetrahydro-1H-pyrrolizin-7a(5H)-yl)methoxy)pyrido[4,3-d]pyrimidin-7-yl)naphthalen-2-ol bis(2,2,2-trifluoroacetate)] | 0.331 µM |
| Cn1cncc1CCOc1nc(N2C[C@H]3CC[C@@H](C2)N3)c2cnc(-c3cc(O)cc4ccccc34)c(F)c2n1 [Example 110, 4-(4-((1R,5S)-3,8-diazabicyclo[3.2.1]octan-3-yl)-8-fluoro-2-(2-(1-methyl-1H-imidazol-5-yl)ethoxy)pyrido[4,3-d]pyrimidin-7-yl)naphthalen-2-ol] | > 16.7 µM |
| Cn1ccnc1CCOc1nc(N2C[C@H]3CC[C@@H](C2)N3)c2cnc(-c3cccc4cccc(Cl)c34)c(F)c2n1 [Example 114, 4-((1R,5S)-3,8-diazabicyclo[3.2.1]octan-3-yl)-7-(8-chloronaphthalen-1-yl)-8-fluoro-2-(2-(1-methyl-1H-imidazol-2-yl)ethoxy)pyrido[4,3-d]pyrimidine] | 10.3 µM |
| CN1C[C@H](F)C[C@H]1COc1nc(N2C[C@H]3CC[C@@H](C2)N3)c2cnc(-c3cccc4cccc(Cl)c34)c(F)c2n1 [Example 115, 4-((1R,5S)-3,8-diazabicyclo[3.2.1]octan-3-yl)-7-(8-chloronaphthalen-1-yl)-8-fluoro-2-(((2S,4R)-4-fluoro-1-methylpyrrolidin-2-yl)methoxy)pyrido[4,3-d]pyrimidine] | 9.51 µM |
| Oc1cc(-c2ncc3c(N4C[C@H]5CC[C@@H](C4)N5)nc(N4CCCC4)nc3c2F)c2ccccc2c1 [Example 118, 4-(4-((1R,5S)-3,8-diazabicyclo[3.2.1]octan-3-yl)-8-fluoro-2-(pyrrolidin-1-yl)pyrido[4,3-d]pyrimidin-7-yl)naphthalen-2-ol 2,2,2-trifluoroacetate] | > 16.7 µM |
| Oc1cc(-c2ncc3c(N4C[C@H]5CC[C@@H](C4)N5)nc(N4CCC4)nc3c2F)c2ccccc2c1 [Example 119, 4-(2-(azetidin-1-yl)-4-((1R,5S)-3,8-diazabicyclo[3.2.1]octan-3-yl)-8-fluoropyrido[4,3-d]pyrimidin-7-yl)naphthalen-2-ol 2,2,2-trifluoroacetate] | 3.7 µM |
| CN(C)C1CN(c2nc(N3C[C@H]4CC[C@@H](C3)N4)c3cnc(-c4cc(O)cc5ccccc45)c(F)c3n2)C1 [Example 120, 4-(4-((1R,5S)-3,8-diazabicyclo[3.2.1]octan-3-yl)-2-(3-(dimethylamino)azetidin-1-yl)-8-fluoropyrido[4,3-d]pyrimidin-7-yl)naphthalen-2-ol bis(2,2,2-trifluoroacetate)] | 2.09 µM |
| OC[C@@H]1CCN1c1nc(N2C[C@H]3CC[C@@H](C2)N3)c2cnc(-c3cc(O)cc4ccccc34)c(F)c2n1 [Example 121, 4-(4-((1R,5S)-3,8-diazabicyclo[3.2.1]octan-3-yl)-8-fluoro-2-((S)-2-(hydroxymethyl)azetidin-1-yl)pyrido[4,3-d]pyrimidin-7-yl)naphthalen-2-ol 2,2,2-trifluoroacetate] | 4.08 µM |
| CN(C)C1CN(c2nc(N3C[C@H]4CC[C@@H](C3)N4)c3cnc(-c4cccc5cccc(Cl)c45)c(F)c3n2)C1 [Example 122, 1-(4-((1R,5S)-3,8-diazabicyclo[3.2.1]octan-3-yl)-7-(8-chloronaphthalen-1-yl)-8-fluoropyrido[4,3-d]pyrimidin-2-yl)-N,N-dimethylazetidin-3-amine] | > 16.7 µM |
| CC1(N)CN(c2nc(N3C[C@H]4CC[C@@H](C3)N4)c3cnc(-c4cc(O)cc5ccccc45)c(F)c3n2)C1 [Example 124, 4-(2-(3-amino-3-methylazetidin-1-yl)-4-((1R,5S)-3,8-diazabicyclo[3.2.1]octan-3-yl)-8-fluoropyrido[4,3-d]pyrimidin-7-yl)naphthalen-2-ol] | 11.1 µM |
| CCC1(N)CN(c2nc(N3C[C@H]4CC[C@@H](C3)N4)c3cnc(-c4cc(O)cc5ccccc45)c(F)c3n2)C1 [Example 126, 4-(2-(3-amino-3-ethylazetidin-1-yl)-4-((1R,5S)-3,8-diazabicyclo[3.2.1]octan-3-yl)-8-fluoropyrido[4,3-d]pyrimidin-7-yl)naphthalen-2-ol] | 3.47 µM |
| CN(C)C1(C)CN(c2nc(N3C[C@H]4CC[C@@H](C3)N4)c3cnc(-c4cccc5cccc(Cl)c45)c(F)c3n2)C1 [Example 127, 1-(4-((1R,5S)-3,8-diazabicyclo[3.2.1]octan-3-yl)-7-(8-chloronaphthalen-1-yl)-8-fluoropyrido[4,3-d]pyrimidin-2-yl)-N,N,3-trimethylazetidin-3-amine] | > 16.7 µM |

Reference: patent US11453683B1, “KRas G12D inhibitors” (Mirati Therapeutics, Inc., priority 2019, dated 2022)
